Source: patent USRE39420E1, “1,2-Diphenylpyrrole derivatives, their preparation and their therapeutic uses” (Sankyo Company, Limited, priority 1996, dated 2006)

How the values were obtained:
[1] = system: Carrageenan-induced Paw Edema in rats; experiment: Carrageenan-induced paw edema test; format: in vivo, Wistar-Imamichi rats; details: Rattus norvegicus, oral, 3 hours after carrageenan, read-out: Inhibition Rate (%)
Description: The same test compounds were subjected to the test as those in the Randall-Selitto test of Experiment 3. Wistar-Imamichi rats (males, 6 week old, body weights: 110-120 g) were used in this test.
The method of Winter, et al. [Proc. Soc. Exp. Biol. Med. 111, 544-547, (1962)] was slightly modified to perform the test [Sankyo Annual Research Report 39, 77-111, (1989)]. The rats were fasted for 16 hours prior to use. Inflammatory edema was induced by the subcutaneous injection of 0.05 ml of a 1% carrageenan (Viscarin 402) solution into the right hind paw of the animal. The test compounds were administered orally 30 minutes before injection of carrageenan. The volume of the right hind foot was measured with a Plethysmometer (Trade mark) (Ugo-Basile Co.) just before administration of the test compound and 3 hours after injection of carrageenan to determine the edema intensity [(right foot volume after 3 hours/right foot volume before injection)-1].

[2] = system: yeast-inflamed pain in rats; experiment: Analgesic effect on yeast-inflamed pain in rats (Randall-Selitto method); format: in vivo, Wistar-Imamichi rats; details: Rattus norvegicus, oral, pain threshold 0.5, 1 and 2 hours after administration, read-out: Efficacy Rate (No. of animals in which drug was effective/No. of animals used in test) (converted)
Description: The compound was suspended in 0.5%tragacanth and administered orally at a volume of 5 ml/kg. The control group was administered with 0.5% tragacanth only as a vehicle.
Wistar-Imamichi rats (males, 5 week old, body weights: 80-100 g) were used in this test.
The test was conducted in accordance with the method of Winter and Flataker [J. Pharmacol. Exp. Ther. 150, 165-171, (1965)], which is a modification of the original method of Randall and Selitto [Arch. Int. Pharmacodyn. Ther. 111, 405-419, (1957)]. The rats were fasted for 16 hours prior to use. Inflammation was induced by subcutaneous injection of 0.1 ml of a suspension of 20% beer yeast (Sigma) into the right hind footpad of the animal. After 4.5 hours, increasing pressure was applied to the inflamed footpad at a constant speed using an Analgesy meter (Trade mark) (Ugo-Basile Co.).
First the average of pain threshold values at each time point (0.5, 1, and 2 hr) was calculated in a control group. If a pain threshold value exceeded 2 times the control average value at the same time point even once in the drug-treated groups, then the animal was considered to indicate efficacy. Efficacy rates of the drug were estimated by the evaluation method of Blake [J. Pharm. Pharm. 19, 367-373, (1967)].

gastric mucosa = experiment: Irritative effect on gastric mucosa; format: in vivo, Wistar rats; details: oral; dose producing 50% incidence of gastric ulcers, 3.5 hours after dosing
Description: Experiments were performed according to the method described by Jahn and Adrian [Arzneim.-Forsch. 19, 36, (1969)]. Male Wistar rats weighing approximately 120 g were fasted for 16 hours before the experiment. The drugs were administered orally to rats as described in Experiment 3. Three and the half hours after dosing, the animals were killed under ether-anesthesia and the stomachs were placed into 1% of formalin. The stomach was opened by cutting along the greater curvature and the number and length of lesions were counted under a microscope (6.3×10). The ulcerogenicity in each animal was assessed according to Hitchens et. al. [Pharmacologist 9, 242, (1967)]. Incidence was determined as the rate of rats with 4 or more ulcers of more than 0.5 mm length, and UD50's (doses producing 50% incidence) were calculated from the incidence and the dose by probit (=probability unit) method.

SMILES | inhibition in vivo at 50 mg/kg [1] [%] | responders at 12.5 mg/kg [2] [%] | UD50 (gastric mucosa) [mg/kg]
Cc1ccc(-c2c(C)ccn2-c2ccc(S(N)(=O)=O)cc2)cc1 [Example 17, 3-Methyl-2-(4-methylphenyl)-1-(4-sulfamoylphenyl) pyrrole] | 67 | – | –
Cc1ccc(-c2cc(C)cn2-c2ccc(S(N)(=O)=O)cc2)cc1 [Example 18, 4-Methyl-2-(4-methylphenyl)-1-(4-sulfamoylphenyl) pyrrole] | 53 | 100 | –
NS(=O)(=O)c1ccc(-c2cccn2-c2ccc(F)cc2)cc1 [Example 19, 1-(4-Fluorophenyl)-2-(4-sulfamoylphenyl)pyrrole] | 65 | 100 | –
CCc1cc(-c2ccc(OC)cc2)n(-c2ccc(S(N)(=O)=O)cc2)c1 [Example 64, 4-Ethyl-2-(4-methoxyphenyl)-1-(4-sulfamoylphenyl) pyrrole] | 60 | – | –
CSc1ccc(-c2cc(C)cn2-c2ccc(S(N)(=O)=O)cc2)cc1 [Example 66, 4-Methyl-2-(4-methylthiophenyl)-1-(4-sulfamoylphenyl)pyrrole] | – | 100 | >100
COc1ccc(-c2cc(C)cn2-c2ccc(S(N)(=O)=O)cc2)cc1C [Example 69, 4-Methyl-2-(4-methoxy-3-methylphenyl)-1-(4-sulfamoylphenyl)pyrrole] | 55 | 100 | >100
Cc1cc(-c2ccc(Cl)c(Cl)c2)n(-c2ccc(S(N)(=O)=O)cc2)c1 [Example 70, 2-(3,4-Dichlorophenyl)-4-methyl-1-(4-sulfamoylphenyl)pyrrole] | – | – | >100
COc1ccc(-c2cc(C)cn2-c2ccc(S(N)(=O)=O)cc2)cc1F [Example 71, 2-(3-Fluoro-4-methoxylphenyl)-4-methyl-1-(4-sulfamoylphenyl)pyrrole] | – | 100 | >100
Cc1cc(-c2ccc(S(N)(=O)=O)cc2)n(-c2ccc(F)cc2F)c1 [Example 75, 1-(2,4-Difluorophenyl)-4-methyl-2-(4-sulfamoylphenyl)pyrrole] | 57 | – | –
COc1ccc(-c2cccn2-c2ccc(S(N)(=O)=O)cc2)cc1 [Example 76, 2-(4-Methoxyphenyl)-1-(4-sulfamoylphenyl)pyrrole] | 56 | – | >100
Cc1cc(-c2ccccc2)n(-c2ccc(S(N)(=O)=O)cc2)c1 [Example 77, 4-Methyl-2-phenyl-1-(4-sulfamoylphenyl)pyrrole] | – | – | >100
COc1ccc(-c2cc(C)cn2-c2ccc(S(N)(=O)=O)cc2)cc1Cl [Example 79, 2-(3-Chloro-4-methoxyphenyl)-4-methyl-1-(4-sulfamoylphenyl)pyrrole] | – | 100 | >100
COc1ccc(-c2cc(C)cn2-c2ccc(S(=O)(=O)NC(C)=O)cc2)cc1 [Example 82, 1-(4-Acetylaminosulfonylphenyl)-2-(4-methoxyphenyl)-4-methylpyrrole] | 78 | 100 | >100
CC(=O)NS(=O)(=O)c1ccc(-n2cc(C)cc2-c2ccc(C)c(C)c2)cc1 [Example 83, 1-(4-Acetylaminosulfonylphenyl)-2-(3,4-dimethylphenyl)-4-methylpyrrole] | 70 | 100 | –
CCSc1ccc(-n2cc(C)cc2-c2ccc(S(N)(=O)=O)cc2)cc1 [Example 85, 1-(4-Ethylthiophenyl)-4-methyl-2-(4-sulfamoylphenyl)pyrrole] | 73 | 100 | –
Cc1cc(-c2ccc(S(N)(=O)=O)cc2)n(-c2ccc(C)c(C)c2)c1 [Example 86, 4-Methyl-1-(3,4-dimethylphenyl)-2-(4-sulfamoylphenyl)pyrrole] | 64 | 100 | –
Cc1cc(C)cc(-c2cc(C)cn2-c2ccc(S(N)(=O)=O)cc2)c1 [Example 87, 4-Methyl-2-(3,5-dimethylphenyl)-1-(4-sulfamoylphenyl)pyrrole] | – | 100 | –
CSc1ccc(-c2c(C)ccn2-c2ccc(S(N)(=O)=O)cc2)cc1 [Example 88, 3-Methyl-2-(4-methylthiophenyl)-1-(4-sulfamoylphenyl)pyrrole] | 61 | 100 | –
Cc1cc(-c2ccc(S(N)(=O)=O)cc2)n(-c2ccc([S+](C)[O-])cc2)c1 (centres unmarked) [Example 96, 4-Methyl-1-(4-methylsulfinylphenyl)-2-(4-sulfamoylphenyl)pyrrole] | 60 | – | –
COc1ccc(-n2c(Cl)ccc2-c2ccc(S(N)(=O)=O)cc2)cc1 [Example 97, 5-Chloro-1-(4-methoxyphenyl)-2-(4-sulfamoylphenyl)pyrrole] | 63 | 100 | –
COc1ccc(-n2c(Br)ccc2-c2ccc(S(N)(=O)=O)cc2)cc1 [Example 98, 5-Bromo-1-(4-methoxyphenyl)-2-(4-sulfamoylphenyl)pyrrole] | 55 | – | –
COc1ccc(-n2c(-c3ccc(S(N)(=O)=O)cc3)cc(C)c2Cl)cc1 [Example 99, 5-Chloro-1-(4-methoxyphenyl)-4-methyl-2-(4-sulfamoylphenyl)pyrrole] | 57 | – | –
CCOc1ccc(-n2c(Cl)ccc2-c2ccc(S(N)(=O)=O)cc2)cc1 [Example 100, 5-Chloro-1-(4-ethoxyphenyl)-2-(4-sulfamoylphenyl) pyrrole] | 57 | 100 | –
CSc1ccc(-n2c(Cl)ccc2-c2ccc(S(N)(=O)=O)cc2)cc1 [Example 101, 5-Chloro-1-(4-methylthiophenyl)-2-(4-sulfamoylphenyl)pyrrole] | – | 100 | –
Cc1cc(-c2ccc(S(N)(=O)=O)cc2)n(-c2ccc(S)cc2)c1 [Example 129, 1-(4-Mercaptophenyl)-4-methyl-2-(4-sulfamoylphenyl)pyrrole] | 62 | 100 | –
CC(=O)Sc1ccc(-n2cc(C)cc2-c2ccc(S(N)(=O)=O)cc2)cc1 [Example 130, 1-(4-Acetylthiophenyl)-4-methyl-2-(4-sulfamoylphenyl)pyrrole] | 73 | 20 | –
